Experimental data reported in ChEMBL document CHEMBL5375995, “Discovery and Mechanistic Study of Novel Mycobacterium tuberculosis ClpP1P2 Inhibitors” (J Med Chem, 2023).
≈ marks a conversion by molar mass, not a printed value. Calls of active or inactive are those of the source. No cut-off for these calls is given here.

Columns and labels:
ClpP1P2 [1] = molecular target: T1, ClpP1P2 (Mycobacterium tuberculosis (strain ATCC 25618 / H37Rv), UniProt P9WPC3+P9WPC5); assay: Inhibition of N-terminal His6-SUMO-tagged Mtb ClpP1 (7 to 200 residues)/ClpP2 (13 to 214 residues) complex expressed in Escherichia coli BL21(DE3) using Z-Gly-Gly-Leu-AMC as substrate measured for 60 mins in presence of Bz-LL by fluorescence based assay
T1 sequence (P9WPC5 whole entry, the tested form may be a part): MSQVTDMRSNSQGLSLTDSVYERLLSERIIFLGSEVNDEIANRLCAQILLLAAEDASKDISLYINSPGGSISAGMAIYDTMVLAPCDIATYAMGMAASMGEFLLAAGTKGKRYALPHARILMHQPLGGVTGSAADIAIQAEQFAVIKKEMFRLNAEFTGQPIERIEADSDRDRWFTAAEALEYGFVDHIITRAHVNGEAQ
T1 sequence (P9WPC3 whole entry, the tested form may be a part): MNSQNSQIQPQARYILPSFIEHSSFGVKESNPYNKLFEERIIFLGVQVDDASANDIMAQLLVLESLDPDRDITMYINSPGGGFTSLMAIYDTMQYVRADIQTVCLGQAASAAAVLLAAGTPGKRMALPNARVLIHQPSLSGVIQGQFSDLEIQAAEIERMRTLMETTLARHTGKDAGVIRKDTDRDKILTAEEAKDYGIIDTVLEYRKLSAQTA

ClpP1P2 [2] = molecular target: T1, ClpP1P2; assay: Inhibition of N-terminal His6-SUMO-tagged Mtb ClpP1 (7 to 200 residues)/ClpP2 (13 to 214 residues) complex expressed in Escherichia coli BL21(DE3) using FITC-casein as substrate measured for 1 hr in presence of Bz-LL/ATP by fluorescence based assay
[3] = system: Mycobacterium tuberculosis; assay: Antibacterial activity against Mycobacterium tuberculosis H37Ra assessed as bacterial growth inhibition incubated for 24 hrs by broth microdilution method; type: functional
[4] = molecular target: T2, ClpP1P2 (Mycobacterium tuberculosis (strain ATCC 25618 / H37Rv)) (UniProt P9WPC5+P9WPC3); assay: Binding affinity to ClpP1 in Mtb H37Ra lysate at 5 mM incubated for 4 hrs by affinity based capture method; type: subcellular
[5] = molecular target: T2, ClpP1P2 (Mycobacterium tuberculosis (strain ATCC 25618 / H37Rv)); assay: Inhibition of N-terminal His6-SUMO-tagged Mtb ClpP1 (7 to 200 residues)/ClpP2 (13 to 214 residues) complex expressed in Escherichia coli BL21(DE3) using Z-Gly-Gly-Leu-AMC as substrate at 10 uM incubated for 40 mins in presence of Bz-LL by fluorescence based assay
[6] = molecular target: ATP-dependent Clp protease ATP-binding subunit ClpC1 (Mycobacterium tuberculosis) (UniProt P9WPC9); assay: Inhibition of N-terminal His6-tagged full-length Mtb ClpC1 ATPase activity expressed in Escherichia coli BL21(DE3) at 100 uM in presence of PK/LDH/ATP/NADH by spectrophotometry
Chain of ATP-dependent Clp protease ATP-binding subunit ClpC1 (Mycobacterium tuberculosis) (P9WPC9 whole entry): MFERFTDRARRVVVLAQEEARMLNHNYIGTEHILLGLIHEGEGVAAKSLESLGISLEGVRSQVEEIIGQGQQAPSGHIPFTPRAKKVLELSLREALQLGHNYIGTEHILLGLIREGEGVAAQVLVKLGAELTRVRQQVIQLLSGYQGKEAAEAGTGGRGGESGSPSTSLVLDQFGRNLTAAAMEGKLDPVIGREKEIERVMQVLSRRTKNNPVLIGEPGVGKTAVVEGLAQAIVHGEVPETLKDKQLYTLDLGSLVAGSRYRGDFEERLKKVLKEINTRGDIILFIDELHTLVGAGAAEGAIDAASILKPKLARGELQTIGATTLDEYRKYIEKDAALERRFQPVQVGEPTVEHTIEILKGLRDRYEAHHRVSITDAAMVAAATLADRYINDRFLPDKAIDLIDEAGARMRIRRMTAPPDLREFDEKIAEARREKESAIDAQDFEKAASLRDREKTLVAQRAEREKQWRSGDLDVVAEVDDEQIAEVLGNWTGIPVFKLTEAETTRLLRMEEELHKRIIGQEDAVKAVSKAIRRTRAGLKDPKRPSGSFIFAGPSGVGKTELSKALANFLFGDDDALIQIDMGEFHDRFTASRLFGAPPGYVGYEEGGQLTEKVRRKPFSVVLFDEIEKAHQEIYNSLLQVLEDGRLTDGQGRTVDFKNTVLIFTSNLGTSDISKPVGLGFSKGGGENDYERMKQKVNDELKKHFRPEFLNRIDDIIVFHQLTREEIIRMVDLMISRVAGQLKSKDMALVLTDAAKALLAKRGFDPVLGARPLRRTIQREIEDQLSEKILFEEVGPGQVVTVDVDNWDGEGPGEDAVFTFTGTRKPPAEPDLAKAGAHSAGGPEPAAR

[7] = molecular target: ATP-dependent Clp protease ATP-binding subunit ClpC1 (Mycobacterium tuberculosis) (UniProt P9WPC9); assay: Inhibition of N-terminal His6-tagged full-length Mtb ClpC1 creatine kinase activity expressed in Escherichia coli BL21(DE3) using creatine phosphate as substrate at 100 uM preincubated for 10 mins followed by substrate addition measured after 10 mins in presence of ADP by Kinase-Glo assay; settings: time 20.0 min
[8] = system: Mycobacterium tuberculosis; assay: Antibacterial activity against Mycobacterium tuberculosis H37Rv assessed as bacterial growth inhibition incubated for 24 hrs by broth microdilution method; type: functional
[9] = system: Mycolicibacterium smegmatis; assay: Antibacterial activity against wild-type Mycobacterium smegmatis mc2 155 assessed as bacterial growth inhibition incubated for 2 days by Alamar blue staining based assay; type: functional; settings: mc2 155, 48 h, time 2 day
Escherichia coli = assay: Antibacterial activity against Escherichia coli assessed as bacterial growth inhibition incubated for 24 hrs by broth microdilution method; type: functional
Staphylococcus aureus = assay: Antibacterial activity against Staphylococcus aureus assessed as bacterial growth inhibition incubated for 24 hrs by broth microdilution method; type: functional
Pseudomonas aeruginosa = assay: Antibacterial activity against Pseudomonas aeruginosa assessed as bacterial growth inhibition incubated for 24 hrs by broth microdilution method; type: functional

Row | SMILES | IC50 (ClpP1P2 [1]) [µM] | IC50 (ClpP1P2 [2]) [µM] | MIC [3] [µM] | further results
1 | COc1cc2c(Oc3ccc4[nH]c(C)cc4c3F)ncnc2cc1OCCCN1CCC[C@@H](N)C1 | 3.3 | 19.1 | 32 (≈ 15.3 µg/mL) | Activity [4]: Active
2 | COc1cc2c(Oc3ccc4[nH]c(C)cc4c3F)ncnc2cc1O | 45.3 | > 100 | > 118 | –
3 | COc1cc2c(Oc3ccc4cc[nH]c4c3)ncnc2cc1OCCCN1CCCC1 | > 100 | > 100 | > 95.6 | –
4 | Cc1cc2c(F)c(Oc3ncnn4cc(OC[C@@H](C)O)c(C)c34)ccc2[nH]1 [BRIVANIB] | 6.9 | 24.2 | – | inhibition [5]: Active; inhibition [6]: inactive; inhibition [7]: inactive
5 | COc1cc(C(=O)Nc2ccc3[nH]c(C)cc3c2F)ccc1OCCCN1CCCC1 | 26.8 | > 100 | > 94 | –
6 | COc1cc2c(Nc3ccc4[nH]c(C)cc4c3F)ncnc2cc1OCCCN1CCCC1 | > 100 | > 100 | > 89 | –
7 | Oc1c(Cl)cc(Cl)c(Cl)c1Cc1c(O)c(Cl)cc(Cl)c1Cl [HEXACHLOROPHENE] | 4.9 | – | – | inhibition [5]: Active
8 | CC(=O)NC[C@H]1CN(c2ccc(N3CCOCC3)c(F)c2)C(=O)O1 [LINEZOLID] | – | – | 0.2 (≈ 0.0675 µg/mL) | MIC [8]: 0.2 µM (≈ 0.0675 µg/mL); MIC [9]: 5.9 µM (≈ 1.99 µg/mL); MIC (Escherichia coli): > 379 µM; MIC (Staphylococcus aureus): 5.9 µM (≈ 1.99 µg/mL); MIC (Pseudomonas aeruginosa): > 379 µM
9 | COc1cc2c(OC)ncnc2cc1OCCCN1CCCC1 | > 100 | > 100 | > 126 | –
10 | COc1cc2c(Oc3ccc4[nH]c(C)cc4c3F)ncnc2cc1OCCCCl | 49.2 | > 100 | > 96.2 | –
11 | CO[C@H]1/C=C/O[C@@]2(C)Oc3c(C)c(O)c4c(O)c(c(/C=N/N5CCN(C)CC5)c(O)c4c3C2=O)NC(=O)/C(C)=C\C=C\[C@H](C)[C@H](O)[C@@H](C)[C@@H](O)[C@@H](C)[C@H](OC(C)=O)[C@@H]1C [RIFAMPIN] | – | – | – | MIC (Escherichia coli): 4.9 µM (≈ 4.03 µg/mL); MIC (Pseudomonas aeruginosa): 38.9 µM (≈ 32 µg/mL)
